{"source": "ChEMBL document CHEMBL5321210", "about": "“N-adamantyl-anthranil amide derivatives: New selective ligands for the cannabinoid receptor subtype 2 (CB2R)” (Eur J Med Chem, 2023)", "key": {"THP-1 [1]": {"tested_on": "THP-1", "experiment": "Antiinflammatory against LPS-activated human THP-1 monocytes assessed as decrease in IL-6 production at 10 uM incubated for 24 hrs in the presence of JTE907 by ELISA coupled qRT-PCR analysis", "format": "functional, cell-based"}, "THP-1 [2]": {"tested_on": "THP-1", "experiment": "Antiinflammatory activity in human THP-1 monocytes assessed as decrease in IFN-gamma production at 10 uM incubated for 24 hrs in the presence of N-(adamantan-1-yl)-4-(pentylamino)-[1,1'-biphenyl]-3-carboxamide by ELISA coupled qRT-PCR analysis", "format": "functional, cell-based"}, "THP-1 [3]": {"tested_on": "THP-1", "experiment": "Antiinflammatory activity against LPS-activated PMA-differentiated human THP-1 monocytes assessed as increase in IL-4 production at 10 uM incubated for 24 hrs in the presence of N-(adamantan-1-yl)-4-(pentylamino)-[1,1'-biphenyl]-3-carboxamide by ELISA coupled qRT-PCR analysis", "format": "functional, cell-based"}, "THP-1 [4]": {"tested_on": "THP-1", "experiment": "Antiinflammatory activity in PMA-differentiated human THP-1 macrophages assessed as reduction in IL-6 production at 10 uM incubated for 24 hrs by ELISA coupled qRT-PCR analysis relative to control", "format": "functional", "design": "scale not given: the % may be the effect or the level left"}, "THP-1 [5]": {"tested_on": "THP-1", "experiment": "Antiinflammatory activity in human THP-1 monocytes assessed as increase in IL-10 production at 10 uM incubated for 24 hrs in the presence of N-(adamantan-1-yl)-4-(pentylamino)-[1,1'-biphenyl]-3-carboxamide by ELISA coupled qRT-PCR analysis", "format": "functional, cell-based"}, "THP-1 [6]": {"tested_on": "THP-1", "experiment": "Antiinflammatory against LPS-activated human THP-1 monocytes assessed as increase in IL-10 production at 10 uM incubated for 24 hrs in the presence of JTE907 by ELISA coupled qRT-PCR analysis", "format": "functional, cell-based"}, "THP-1 [7]": {"tested_on": "THP-1", "experiment": "Antiinflammatory against LPS-activated human THP-1 monocytes assessed as decrease in TNF-alpha production at 10 uM incubated for 24 hrs in the presence of JTE907 by ELISA coupled qRT-PCR analysis", "format": "functional, cell-based"}, "THP-1 [8]": {"tested_on": "THP-1", "experiment": "Antiinflammatory activity in human THP-1 monocytes assessed as decrease in IL-6 production at 10 uM incubated for 24 hrs in the presence of N-(adamantan-1-yl)-4-(pentylamino)-[1,1'-biphenyl]-3-carboxamide by ELISA coupled qRT-PCR analysis", "format": "functional, cell-based"}, "THP-1 [9]": {"tested_on": "THP-1", "experiment": "Antiinflammatory activity against LPS-activated human THP-1 monocytes assessed as decrease in TNF-alpha production at 10 uM incubated for 24 hrs in the presence of N-(adamantan-1-yl)-4-(pentylamino)-[1,1'-biphenyl]-3-carboxamide by ELISA coupled qRT-PCR analysis", "format": "functional, cell-based"}, "THP-1 [10]": {"tested_on": "THP-1", "experiment": "Antiinflammatory activity in PMA-differentiated human THP-1 macrophages assessed as decrease in TNF-alpha production at 10 uM incubated for 24 hrs in the presence of JTE907 by ELISA coupled qRT-PCR analysis", "format": "functional, cell-based"}, "THP-1 [11]": {"tested_on": "THP-1", "experiment": "Antiinflammatory activity in PMA-differentiated human THP-1 monocytes assessed as decrease in IL-6 production at 10 uM incubated for 24 hrs in the presence of N-(adamantan-1-yl)-4-(pentylamino)-[1,1'-biphenyl]-3-carboxamide by ELISA coupled qRT-PCR analysis", "format": "functional, cell-based"}, "THP-1 [12]": {"tested_on": "THP-1", "experiment": "Antiinflammatory activity against LPS-activated PMA-differentiated human THP-1 macrophages assessed as increase in IL-10 production at 10 uM incubated for 24 hrs by ELISA coupled qRT-PCR analysis", "format": "functional, cell-based"}, "THP-1 [13]": {"tested_on": "THP-1", "experiment": "Antiinflammatory activity in PMA-differentiated human THP-1 monocytes assessed as increase in IL-4 production at 10 uM incubated for 24 hrs in the presence of N-(adamantan-1-yl)-4-(pentylamino)-[1,1'-biphenyl]-3-carboxamide by ELISA coupled qRT-PCR analysis", "format": "functional, cell-based"}, "THP-1 [14]": {"tested_on": "THP-1", "experiment": "Antiinflammatory activity in LPS-activated PMA-differentiated human THP-1 macrophages assessed as decrease in IL-6 production at 10 uM incubated for 24 hrs in the presence of JTE907 by ELISA coupled qRT-PCR analysis", "format": "functional, cell-based"}, "THP-1 [15]": {"tested_on": "THP-1", "experiment": "Antiinflammatory activity against LPS-activated human THP-1 monocytes assessed as increase in IL-10 production at 10 uM incubated for 24 hrs in the presence of N-(adamantan-1-yl)-4-(pentylamino)-[1,1'-biphenyl]-3-carboxamide by ELISA coupled qRT-PCR analysis", "format": "functional, cell-based"}, "THP-1 [16]": {"tested_on": "THP-1", "experiment": "Antiinflammatory activity in human THP-1 monocytes assessed as decrease in IL-6 production at 10 uM incubated for 24 hrs in the presence of JTE907 by ELISA coupled qRT-PCR analysis", "format": "functional, cell-based"}, "THP-1 [17]": {"tested_on": "THP-1", "experiment": "Antiinflammatory against LPS-activated human THP-1 monocytes assessed as increase in IL-4 production at 10 uM incubated for 24 hrs in the presence of JTE907 by ELISA coupled qRT-PCR analysis", "format": "functional, cell-based"}, "THP-1 [18]": {"tested_on": "THP-1", "experiment": "Antiinflammatory activity in LPS-activated PMA-differentiated human THP-1 macrophages assessed as decrease in IL-1beta production at 1 to 10 uM incubated for 24 hrs in the presence of JTE907 by ELISA coupled qRT-PCR analysis", "format": "functional, cell-based", "conditions": "dose 1-10 µM"}, "THP-1 [19]": {"tested_on": "THP-1", "experiment": "Antiinflammatory activity in PMA-differentiated human THP-1 macrophages assessed as decrease in IL-1beta production at 1 to 10 uM incubated for 24 hrs in the presence of JTE907 by ELISA coupled qRT-PCR analysis", "format": "functional, cell-based", "conditions": "dose 1-10 µM"}, "THP-1 [20]": {"tested_on": "THP-1", "experiment": "Antiinflammatory against LPS-activated human THP-1 monocytes assessed as decrease in IL-6 production at 1 to 10 uM incubated for 24 hrs in the presence of JTE907 by ELISA coupled qRT-PCR analysis", "format": "functional, cell-based", "conditions": "dose 1-10 µM"}, "THP-1 [21]": {"tested_on": "THP-1", "experiment": "Antiinflammatory activity in human THP-1 monocytes assessed as increase in IL-4 production at 1 to 10 uM incubated for 24 hrs in the presence of JTE907 by ELISA coupled qRT-PCR analysis", "format": "functional, cell-based", "conditions": "dose 1-10 µM"}, "THP-1 [22]": {"tested_on": "THP-1", "experiment": "Antiinflammatory activity in human THP-1 monocytes assessed as decrease in IFN-gamma production incubated for 24 hrs by ELISA coupled qRT-PCR analysis", "format": "functional, cell-based", "conditions": "dose 1-10 µM"}, "THP-1 [23]": {"tested_on": "THP-1", "experiment": "Antiinflammatory activity in PMA-differentiated human THP-1 macrophages assessed as increase in IL-4 production at 1 to 10 uM incubated for 24 hrs by ELISA coupled qRT-PCR analysis", "format": "functional, cell-based", "conditions": "dose 1-10 µM"}, "THP-1 [24]": {"tested_on": "THP-1", "experiment": "Antiinflammatory activity in PMA-differentiated human THP-1 macrophages assessed as decrease in IL-6 production at 1 to 10 uM incubated for 24 hrs in the presence of JTE907 by ELISA coupled qRT-PCR analysis", "format": "functional, cell-based", "conditions": "dose 1-10 µM"}, "THP-1 [25]": {"tested_on": "THP-1", "experiment": "Antiinflammatory activity in PMA-differentiated human THP-1 macrophages assessed as increase in IL-4 production at 1 to 10 uM incubated for 24 hrs in the presence of JTE907 by ELISA coupled qRT-PCR analysis", "format": "functional, cell-based", "conditions": "dose 1-10 µM"}, "THP-1 [26]": {"tested_on": "THP-1", "experiment": "Antiinflammatory against LPS-activated human THP-1 monocytes assessed as increase in IL-10 production at 1 to 10 uM incubated for 24 hrs in the presence of JTE907 by ELISA coupled qRT-PCR analysis", "format": "functional, cell-based", "conditions": "dose 1-10 µM"}, "THP-1 [27]": {"tested_on": "THP-1", "experiment": "Antiinflammatory activity in PMA-differentiated human THP-1 macrophages assessed as reduction in IL-1beta production at 1 to 10 uM incubated for 24 hrs by ELISA coupled qRT-PCR analysis relative to control", "format": "functional", "design": "scale not given: the % may be the effect or the level left", "conditions": "dose 1-10 µM"}}, "note": "Activity calls are given as the source filed them. No cut-off for these calls is given here."}
{"compound": "O=C(NC1CCCCC1)c1cn(CCN2CCOCC2)c2cc(Cl)ccc2c1=O", "values": [{"measurement": "Activity", "setting": "THP-1 [1]", "value": "inactive"}, {"measurement": "Activity", "setting": "THP-1 [2]", "value": "inactive"}, {"measurement": "Activity", "setting": "THP-1 [3]", "value": "inactive"}, {"measurement": "Activity", "setting": "THP-1 [4]", "value": 50, "unit": "%"}, {"measurement": "Activity", "setting": "THP-1 [5]", "value": "inactive"}, {"measurement": "Activity", "setting": "THP-1 [6]", "value": "inactive"}, {"measurement": "Activity", "setting": "THP-1 [7]", "value": "inactive"}, {"measurement": "Activity", "setting": "THP-1 [8]", "value": "inactive"}, {"measurement": "Activity", "setting": "THP-1 [9]", "value": "inactive"}, {"measurement": "Activity", "setting": "THP-1 [10]", "value": "inactive"}, {"measurement": "Activity", "setting": "THP-1 [11]", "value": "inactive"}, {"measurement": "Activity", "setting": "THP-1 [12]", "value": "Active"}, {"measurement": "Activity", "setting": "THP-1 [13]", "value": "inactive"}, {"measurement": "Activity", "setting": "THP-1 [14]", "value": "inactive"}, {"measurement": "Activity", "setting": "THP-1 [15]", "value": "inactive"}, {"measurement": "Activity", "setting": "THP-1 [16]", "value": "inactive"}, {"measurement": "Activity", "setting": "THP-1 [17]", "value": "inactive"}]}
{"compound": "CCCCCNc1ccccc1C(=O)NC12CC3CC(CC(C3)C1)C2", "values": [{"measurement": "Activity", "setting": "THP-1 [18]", "value": "inactive"}, {"measurement": "Activity", "setting": "THP-1 [19]", "value": "inactive"}, {"measurement": "Activity", "setting": "THP-1 [20]", "value": "inactive"}, {"measurement": "Activity", "setting": "THP-1 [21]", "value": "inactive"}, {"measurement": "Activity", "setting": "THP-1 [22]", "value": "Dose-Dependent Effect"}, {"measurement": "Activity", "setting": "THP-1 [23]", "value": "Active"}, {"measurement": "Activity", "setting": "THP-1 [24]", "value": "inactive"}, {"measurement": "Activity", "setting": "THP-1 [25]", "value": "inactive"}, {"measurement": "Activity", "setting": "THP-1 [26]", "value": "inactive"}, {"measurement": "Activity", "setting": "THP-1 [27]", "value": 50, "unit": "%"}]}
